For one assay, the target named is NaV1.2 (Rattus norvegicus, UniProt P04775). The format is cell-based.
In another assay the target is NaV1.6 (Mus musculus, UniProt Q9WTU3). The format is cell-based.
Chain of NaV1.6 (Q9WTU3 whole entry, looked up): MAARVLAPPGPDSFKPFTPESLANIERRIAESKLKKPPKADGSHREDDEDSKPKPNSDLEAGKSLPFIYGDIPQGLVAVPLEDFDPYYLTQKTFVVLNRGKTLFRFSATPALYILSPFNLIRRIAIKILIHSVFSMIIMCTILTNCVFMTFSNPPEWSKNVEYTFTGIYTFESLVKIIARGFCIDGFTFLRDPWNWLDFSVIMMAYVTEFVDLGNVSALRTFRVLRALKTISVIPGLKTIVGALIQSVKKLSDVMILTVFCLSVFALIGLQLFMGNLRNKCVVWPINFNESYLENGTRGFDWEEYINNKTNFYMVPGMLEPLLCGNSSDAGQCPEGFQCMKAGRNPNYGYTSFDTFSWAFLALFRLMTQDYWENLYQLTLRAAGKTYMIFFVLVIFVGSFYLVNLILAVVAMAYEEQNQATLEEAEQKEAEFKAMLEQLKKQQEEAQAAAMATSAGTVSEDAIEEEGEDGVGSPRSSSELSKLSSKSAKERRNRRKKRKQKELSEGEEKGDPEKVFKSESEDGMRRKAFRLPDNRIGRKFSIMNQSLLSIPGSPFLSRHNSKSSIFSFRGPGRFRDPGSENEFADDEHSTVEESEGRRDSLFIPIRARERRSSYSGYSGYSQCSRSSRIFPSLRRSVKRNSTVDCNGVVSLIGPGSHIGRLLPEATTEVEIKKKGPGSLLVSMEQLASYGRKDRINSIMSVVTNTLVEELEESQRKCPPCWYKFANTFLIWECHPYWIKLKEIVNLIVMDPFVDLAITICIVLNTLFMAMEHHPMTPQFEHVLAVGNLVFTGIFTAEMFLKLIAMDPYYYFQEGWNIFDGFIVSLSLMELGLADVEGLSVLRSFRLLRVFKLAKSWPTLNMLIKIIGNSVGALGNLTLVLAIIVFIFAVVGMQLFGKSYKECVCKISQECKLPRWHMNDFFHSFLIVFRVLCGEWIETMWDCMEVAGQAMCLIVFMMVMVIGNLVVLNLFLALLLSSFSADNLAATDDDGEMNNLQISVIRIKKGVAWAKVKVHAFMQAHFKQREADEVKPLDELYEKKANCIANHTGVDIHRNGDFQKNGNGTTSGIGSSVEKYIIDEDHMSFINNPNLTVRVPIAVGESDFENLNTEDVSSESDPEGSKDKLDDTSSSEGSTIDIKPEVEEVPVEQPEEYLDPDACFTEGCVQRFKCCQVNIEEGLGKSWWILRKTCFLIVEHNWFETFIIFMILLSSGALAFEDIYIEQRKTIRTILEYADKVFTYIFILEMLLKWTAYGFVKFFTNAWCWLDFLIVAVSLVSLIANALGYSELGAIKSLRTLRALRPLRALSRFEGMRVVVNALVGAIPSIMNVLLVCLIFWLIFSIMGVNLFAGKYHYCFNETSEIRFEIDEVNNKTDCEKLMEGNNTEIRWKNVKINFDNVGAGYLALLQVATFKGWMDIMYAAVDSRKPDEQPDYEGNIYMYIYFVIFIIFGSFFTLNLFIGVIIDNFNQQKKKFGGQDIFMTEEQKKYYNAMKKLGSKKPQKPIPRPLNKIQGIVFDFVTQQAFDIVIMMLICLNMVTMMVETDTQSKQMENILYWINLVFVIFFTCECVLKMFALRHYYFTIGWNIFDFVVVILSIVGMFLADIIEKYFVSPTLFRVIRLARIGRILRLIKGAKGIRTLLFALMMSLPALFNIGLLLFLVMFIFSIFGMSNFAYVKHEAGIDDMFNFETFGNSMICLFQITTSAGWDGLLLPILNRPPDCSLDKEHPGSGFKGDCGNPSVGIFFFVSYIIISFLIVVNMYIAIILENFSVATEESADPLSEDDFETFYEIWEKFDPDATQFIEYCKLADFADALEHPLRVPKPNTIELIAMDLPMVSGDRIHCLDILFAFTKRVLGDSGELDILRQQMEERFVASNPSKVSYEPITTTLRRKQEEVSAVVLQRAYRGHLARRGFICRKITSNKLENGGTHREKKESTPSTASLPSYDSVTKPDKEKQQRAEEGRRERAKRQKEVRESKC

Chain of NaV1.2 (P04775 whole entry, looked up): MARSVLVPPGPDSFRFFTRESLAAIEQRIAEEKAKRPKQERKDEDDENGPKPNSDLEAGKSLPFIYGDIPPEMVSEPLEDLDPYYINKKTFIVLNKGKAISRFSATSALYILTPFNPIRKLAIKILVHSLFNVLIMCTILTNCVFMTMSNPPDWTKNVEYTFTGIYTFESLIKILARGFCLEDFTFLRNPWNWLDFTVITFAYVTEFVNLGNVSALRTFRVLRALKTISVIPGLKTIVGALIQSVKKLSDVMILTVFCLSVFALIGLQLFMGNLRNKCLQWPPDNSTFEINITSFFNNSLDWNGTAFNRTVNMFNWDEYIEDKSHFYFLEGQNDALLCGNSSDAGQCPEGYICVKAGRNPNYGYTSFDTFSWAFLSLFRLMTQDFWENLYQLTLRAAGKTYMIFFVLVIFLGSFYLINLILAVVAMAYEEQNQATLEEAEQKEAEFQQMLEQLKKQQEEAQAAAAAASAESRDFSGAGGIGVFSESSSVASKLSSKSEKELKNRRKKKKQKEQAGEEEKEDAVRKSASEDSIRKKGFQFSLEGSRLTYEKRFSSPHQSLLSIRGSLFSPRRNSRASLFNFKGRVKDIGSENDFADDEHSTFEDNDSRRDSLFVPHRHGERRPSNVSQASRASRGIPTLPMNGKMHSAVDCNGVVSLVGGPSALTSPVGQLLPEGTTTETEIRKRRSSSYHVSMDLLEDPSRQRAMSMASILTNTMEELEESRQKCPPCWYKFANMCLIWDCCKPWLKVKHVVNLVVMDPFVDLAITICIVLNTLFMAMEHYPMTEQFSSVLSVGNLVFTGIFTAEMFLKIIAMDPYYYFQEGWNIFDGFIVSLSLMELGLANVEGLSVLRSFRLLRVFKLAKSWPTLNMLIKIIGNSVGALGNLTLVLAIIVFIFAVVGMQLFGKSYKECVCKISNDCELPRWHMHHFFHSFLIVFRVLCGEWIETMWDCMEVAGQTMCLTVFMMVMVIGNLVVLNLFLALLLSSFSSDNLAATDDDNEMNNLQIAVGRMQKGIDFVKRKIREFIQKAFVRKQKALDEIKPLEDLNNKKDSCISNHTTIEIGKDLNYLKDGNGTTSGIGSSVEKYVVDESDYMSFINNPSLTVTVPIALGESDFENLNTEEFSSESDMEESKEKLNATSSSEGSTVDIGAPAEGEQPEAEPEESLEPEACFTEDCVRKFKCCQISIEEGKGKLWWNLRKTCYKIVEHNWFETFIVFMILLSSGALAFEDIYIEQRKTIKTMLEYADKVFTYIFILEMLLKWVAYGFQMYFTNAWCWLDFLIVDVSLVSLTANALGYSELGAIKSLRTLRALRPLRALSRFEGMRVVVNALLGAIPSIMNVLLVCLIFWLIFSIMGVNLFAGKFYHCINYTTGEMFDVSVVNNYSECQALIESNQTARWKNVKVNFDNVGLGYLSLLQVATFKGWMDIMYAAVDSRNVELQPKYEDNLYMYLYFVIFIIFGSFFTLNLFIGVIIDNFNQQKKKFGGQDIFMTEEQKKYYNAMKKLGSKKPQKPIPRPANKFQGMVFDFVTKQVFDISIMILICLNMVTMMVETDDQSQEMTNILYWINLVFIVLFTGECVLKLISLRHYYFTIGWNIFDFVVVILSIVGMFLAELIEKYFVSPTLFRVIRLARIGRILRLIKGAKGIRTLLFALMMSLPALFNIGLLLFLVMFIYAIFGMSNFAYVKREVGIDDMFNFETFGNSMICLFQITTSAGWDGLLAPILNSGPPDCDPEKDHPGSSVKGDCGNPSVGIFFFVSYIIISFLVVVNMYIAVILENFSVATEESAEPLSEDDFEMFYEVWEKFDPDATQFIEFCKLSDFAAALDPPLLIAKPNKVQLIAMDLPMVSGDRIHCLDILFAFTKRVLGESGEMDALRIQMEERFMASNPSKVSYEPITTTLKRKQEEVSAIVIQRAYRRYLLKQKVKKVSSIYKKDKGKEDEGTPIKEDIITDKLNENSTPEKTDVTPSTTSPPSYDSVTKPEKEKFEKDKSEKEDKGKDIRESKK

Regarding Ac-DSKWKRDHSR-NH2 [Peptide D5K9], on NaV1.2, the “% block of NaV1.2” value is on record as 33.1 ± 0.9%. Moreover, on NaV1.6, the “% block of NaV1.6” value is recorded as 36.0 ± 0.7%.

Values taken from PMC3228837 (Journal of medicinal chemistry, 2011).
